Experimental findings from patent US9944654B2, “Nargenicin compounds and uses thereof as antibacterial agents” (priority 2014, dated 2018) are described below.

SMILES strings stand for the structures. In brackets after ≈: the same amount, converted by molar mass. Where two headings read alike, the source gives them in different places. Where only a bound is given, the exact number is not on record here.

For assay [1], the system named is Staphylococcus aureus MB6266 (MRSA COL). Description: Nargenicin antibacterial assay (MIC), S. aureus. It is filed as cell-based. The settings on record: Staphylococcus aureus, MRSA, read-out: S. aureus COL (MIC), MHII broth + 50% human serum; * = some reduction of growth versus control at […].
Assay [2] deals with Streptococcus pneumoniae MB6357 (CL 2883). Description: Nargenicin antibacterial assay (MIC), S. pneumoniae. It is filed as cell-based. The following applies: Streptococcus pneumoniae, read-out: S. pneumoniae MB2883 (MIC), Isosensitest broth; * = some reduction of growth versus control at […].
The test system of assay [3] is Pseudomonas aeruginosa MB5890 (CB1101, efflux-deleted). Description: microbe, parasite or virus in culture. The following applies: Pseudomonas aeruginosa, read-out: P. aeruginosa MB5890 efflux-del (MIC), MHII broth; * = some reduction of growth versus control at […]. It is filed as cell-based.
The subject of assay [4] is Escherichia coli MB5747 (LS 883, tolC). Description: microbe, parasite or virus in culture. It is filed as cell-based. The settings on record: Escherichia coli, read-out: E. coli LS883 tolC (MIC), MHII broth; * = some reduction of growth versus control at […].
Assay [5] has as its target T1, E. coli DnaE (DNA polymerase III α-subunit from Escherichia coli) (Escherichia coli, UniProt P10443).
T1 construct: EcDnaE (E. coli DnaE residues 1-1160); 6xHis (N); made in house; host or cells: E. coli BL21(DE3)
Description: In vitro DnaE single enzyme assay (E. coli). It is filed as biochemical. The method in brief:
(§1)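 3H-dTTP (0.011 mM) incorporation into DNase I-activated calf thymus DNA, alongside the other three dNTPs at 0.025 mM, measured by filter counting after TCA precipitation. Reactions ran 30 min at 30° C., started with purified N-His DnaE: 0.8 μg/ml for E. coli, 0.05 μg/ml for S. aureus.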

In assay [6] the target is T2, S. aureus DnaE (DNA polymerase III α-subunit homolog from Staphylococcus aureus) (Staphylococcus aureus, UniProt Q5HF71).
T2 construct: SaDnaE (S. aureus DnaE residues 1-1065); 6xHis (N); made in house; host or cells: E. coli BL21-AI
T2 sequence (Q5HF71 1-1065): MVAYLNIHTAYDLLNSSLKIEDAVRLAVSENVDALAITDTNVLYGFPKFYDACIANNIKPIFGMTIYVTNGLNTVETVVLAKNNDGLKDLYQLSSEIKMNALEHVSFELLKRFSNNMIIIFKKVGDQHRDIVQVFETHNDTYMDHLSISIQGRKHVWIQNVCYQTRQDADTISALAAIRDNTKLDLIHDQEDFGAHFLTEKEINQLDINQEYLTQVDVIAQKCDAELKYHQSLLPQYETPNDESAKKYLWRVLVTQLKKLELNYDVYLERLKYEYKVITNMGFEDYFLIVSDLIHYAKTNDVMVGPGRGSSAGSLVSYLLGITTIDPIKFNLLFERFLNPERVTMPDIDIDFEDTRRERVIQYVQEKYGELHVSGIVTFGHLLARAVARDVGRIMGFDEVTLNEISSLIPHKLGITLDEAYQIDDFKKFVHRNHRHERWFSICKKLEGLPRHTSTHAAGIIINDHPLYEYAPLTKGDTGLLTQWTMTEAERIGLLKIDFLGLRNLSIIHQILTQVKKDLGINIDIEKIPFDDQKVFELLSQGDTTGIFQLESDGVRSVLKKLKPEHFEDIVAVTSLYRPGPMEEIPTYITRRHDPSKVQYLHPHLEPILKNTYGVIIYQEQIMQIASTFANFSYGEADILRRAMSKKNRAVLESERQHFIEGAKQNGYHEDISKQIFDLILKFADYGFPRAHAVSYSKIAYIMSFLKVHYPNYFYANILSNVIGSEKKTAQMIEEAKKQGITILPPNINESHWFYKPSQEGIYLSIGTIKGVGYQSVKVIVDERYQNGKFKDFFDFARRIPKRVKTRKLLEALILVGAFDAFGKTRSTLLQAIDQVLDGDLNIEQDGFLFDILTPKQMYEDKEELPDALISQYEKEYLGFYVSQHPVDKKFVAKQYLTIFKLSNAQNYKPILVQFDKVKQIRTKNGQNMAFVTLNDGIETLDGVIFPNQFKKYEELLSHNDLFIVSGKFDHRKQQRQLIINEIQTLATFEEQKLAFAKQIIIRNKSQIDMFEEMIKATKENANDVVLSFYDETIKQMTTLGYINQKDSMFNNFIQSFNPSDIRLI
Description: biochemical. It is filed as biochemical. The method in brief: as §1

The mark [7] stands for this setting: read-out: S. aureus DnaE IC50 (converted).
Where [8] appears, read: read-out: E. coli DnaE IC50 (converted).

T1 sequence (P10443 whole entry, the tested form may be a part): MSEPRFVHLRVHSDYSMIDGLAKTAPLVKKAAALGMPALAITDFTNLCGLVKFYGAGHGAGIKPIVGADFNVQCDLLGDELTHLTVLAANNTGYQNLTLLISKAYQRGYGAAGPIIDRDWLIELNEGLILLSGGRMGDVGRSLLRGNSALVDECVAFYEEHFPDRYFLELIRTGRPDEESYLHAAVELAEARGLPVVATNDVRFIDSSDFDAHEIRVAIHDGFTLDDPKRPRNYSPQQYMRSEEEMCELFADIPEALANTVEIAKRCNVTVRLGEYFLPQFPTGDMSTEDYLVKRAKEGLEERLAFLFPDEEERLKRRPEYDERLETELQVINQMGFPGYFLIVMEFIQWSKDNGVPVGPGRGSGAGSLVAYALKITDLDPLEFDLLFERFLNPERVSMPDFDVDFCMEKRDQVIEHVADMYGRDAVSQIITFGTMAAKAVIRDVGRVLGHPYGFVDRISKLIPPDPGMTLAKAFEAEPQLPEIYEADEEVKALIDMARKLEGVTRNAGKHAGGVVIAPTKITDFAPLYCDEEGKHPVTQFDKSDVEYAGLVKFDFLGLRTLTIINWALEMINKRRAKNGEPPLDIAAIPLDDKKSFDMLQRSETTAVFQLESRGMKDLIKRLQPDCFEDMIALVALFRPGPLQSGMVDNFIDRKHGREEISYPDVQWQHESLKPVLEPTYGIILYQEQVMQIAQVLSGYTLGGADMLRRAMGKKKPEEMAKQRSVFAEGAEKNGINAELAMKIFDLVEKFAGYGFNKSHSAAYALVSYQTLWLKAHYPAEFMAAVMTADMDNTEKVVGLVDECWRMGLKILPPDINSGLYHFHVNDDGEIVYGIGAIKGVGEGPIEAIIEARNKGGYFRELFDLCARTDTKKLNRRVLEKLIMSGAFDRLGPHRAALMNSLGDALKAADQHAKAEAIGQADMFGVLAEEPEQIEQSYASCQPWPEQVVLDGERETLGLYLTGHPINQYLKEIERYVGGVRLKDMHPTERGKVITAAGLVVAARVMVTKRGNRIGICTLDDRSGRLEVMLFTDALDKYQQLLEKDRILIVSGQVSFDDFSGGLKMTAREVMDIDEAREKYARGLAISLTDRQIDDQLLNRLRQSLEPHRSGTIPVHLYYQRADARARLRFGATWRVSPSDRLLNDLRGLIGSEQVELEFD

With `CO[C@H]1C[C@H]2[C@@H]3O[C@@H]3[C@H]3[C@H]4O[C@]2(/C(C)=C/[C@@H](C)[C@@H]([C@@H](C)O)OC1=O)[C@@H]3[C@H](O)[C@@H](C)[C@H]4OC(=O)c1ccc[nH]1` [Example 160, (1aS, 1bS,3S,6S,7R,9aS,9bS,10R,11R,12R,13R,13aS,13bR,E)-10-hydroxy-6-((R)-1-hydroxyethyl)-3-methoxy-7,9,11-trimethyl-4-oxo-1 a,lb,2,3,4,6,7,9b,10,11,12,13,13a,13b-tetradecahydro-9a,13-epoxyoxireno[2′,3′:3,4]naphtho[2,1-e]oxecin-12-yl 1H-pyrrole-2-carboxylate], the MIC in assay [1] was greater than 8 µg/mL; in assay [2], greater than 128 µg/mL; in assay [3], greater than 128 µg/mL; in assay [4], greater than 8 µg/mL. For the same compound, the IC50 in assay [5] (E. coli DnaE IC50) is greater than 188 µM; in assay [6] (setting [7]) it was 4.14 µM.

Consider `CO[C@H]1C[C@H]2C=C[C@H]3[C@H]4O[C@]2(/C(C)=C/[C@@H](C)[C@@H](C(C)=O)OC1=O)[C@@H]3C(=O)[C@@H](C)[C@H]4OC(=O)c1ccc[nH]1` [Example 171], for which the MIC in assay [1] is greater than 8 µg/mL; in assay [2], greater than 128 µg/mL; in assay [3] it was greater than 128 µg/mL; in assay [4], greater than 8 µg/mL. Moreover, the IC50 in assay [5] (setting [8]) is 176 µM; in assay [6] (S. aureus DnaE IC50), 6.84 µM.

In the case of `CO[C@H]1CC2C=C[C@H]3[C@H]4O[C@]2(/C(C)=C/[C@@H](C)[C@@H](C(C)OC(C)=O)OC1=O)[C@@H]3[C@H](O)[C@@H](C)[C@H]4OC(=O)c1ccc[nH]1` (stereo partly drawn) [Example 57], the MIC was 8 µg/mL in assay [1], 64 µg/mL (≈ 115 µM) in assay [2], greater than 128 µg/mL in assay [3] and 4 µg/mL (≈ 7.17 µM) in assay [4]. For the same compound, the half-maximal inhibitory concentration (IC50) in assay [5] (setting [8]) is 80.7 µM; in assay [6] (S. aureus DnaE IC50) it was less than 0.0108 µM.

For the compound `CO[C@H]1CC2C=C[C@H]3[C@H]4O[C@]2(/C(C)=C/[C@@H](C)[C@@H](C(C)O)OC1=O)[C@@H]3[C@H](O)[C@@H](C)[C@H]4OC(=O)c1ccc[nH]1` (stereo partly drawn) [Example 145, Nargenicin A1, reference compound], the MIC was 0.25 µg/mL in assay [1], greater than 128 µg/mL in assay [2], 4 µg/mL (≈ 7.76 µM) in assay [3] and 0.25 µg/mL (≈ 0.485 µM) in assay [4]. Moreover, the IC50 was 1.75 µM in assay [5] (setting [8]) and less than 0.0116 µM in assay [6] (S. aureus DnaE IC50).

Consider `CO[C@H]1C[C@H]2C=C[C@H]3[C@H]4O[C@]2(/C(C)=C/[C@@H](C)[C@@H]([C@@H](C)OC(=O)N2CCOCC2)OC1=O)[C@@H]3[C@H](O)[C@@H](C)[C@H]4OC(=O)c1ccc[nH]1` [Example 20], for which the MIC in assay [1] was 8 µg/mL; in assay [2], 32 µg/mL (≈ 50.9 µM); in assay [3], greater than 128 µg/mL; in assay [4] it was 8 µg/mL (≈ 12.7 µM). Also, the half-inhibitory concentration (IC50) is greater than 159 µM in assay [5] (setting [8]) and less than 0.00954 µM in assay [6] (S. aureus DnaE IC50).

As to `CO[C@H]1CC2C=C[C@H]3[C@H]4O[C@]2(/C(C)=C/[C@@H](C)[C@@H](C(C)O)OC1=O)[C@@H]3[C@H](O)[C@@H](C)[C@H]4OC(=O)c1[nH]c(-c2ccsc2)c(-c2ccsc2)c1-c1ccsc1` (stereo partly drawn) [Example 201], the MIC is greater than 128 µg/mL in assay [1], 128 µg/mL (≈ 168 µM) in assay [2], greater than 128 µg/mL in assay [3] and greater than 128 µg/mL in assay [4]. Further, the results for the IC50 in assay [5] (setting [8]) and in assay [6] (S. aureus DnaE IC50) were 0.525 µM and 0.394 µM, respectively.

In the case of `CO[C@H]1C[C@H]2C=C[C@H]3[C@H]4O[C@]2(/C(C)=C/[C@@H](C)[C@@H]([C@@H](C)O)OC1=O)[C@@H]3[C@H](O)[C@@H](C)[C@H]4OC(=O)c1ccc(Br)[nH]1` [Example 43], the MIC in assay [1] is 64 µg/mL; in assay [2], 128 µg/mL (≈ 215 µM); in assay [3] it was greater than 128 µg/mL; in assay [4], 8 µg/mL (≈ 13.5 µM). Further, the half-maximal inhibitory concentration (IC50) in assay [5] (setting [8]) was 75.7 µM; in assay [6] (S. aureus DnaE IC50) it was 0.202 µM.

Consider `CO[C@H]1C[C@H]2C=C[C@@H]3[C@H]4[C@H](O)[C@@H](C)C(n5ccnc5)[C@@H]3O[C@]42/C(C)=C/[C@@H](C)[C@@H]([C@@H](C)O)OC1=O` (stereo partly drawn) [Example 149], for which the MIC in assay [1] was greater than 128 µg/mL; in assay [2] it was greater than 128 µg/mL; in assay [3] it was 128 µg/mL (≈ 271 µM); in assay [4] it was 32 µg/mL (≈ 67.7 µM). Also, the IC50 was greater than 212 µM in assay [5] (E. coli DnaE IC50) and 23.3 µM in assay [6] (S. aureus DnaE IC50).

Regarding `CO[C@H]1C[C@H]2C=C[C@H]3[C@H]4O[C@]2(/C(C)=C/[C@@H](C)[C@@H]([C@@H](C)O)OC1=O)[C@@H]3C(=O)C(C)[C@H]4C[N+](=O)[O-]` (stereo partly drawn) [Example 162, (3R,4 S ,7S ,8aS ,10aR,11R,12 S ,14aR,14b S,E)-4-((R)-1-hydroxyethyl)-7-methoxy-1,3,13-trimethyl-12-(nitromethyl)-3 ,4,8,8a,10a,11,12,13-octahydro-11,14b-epoxynaphtho [2,1-e]oxecine-6,14(7H,14aH)-dione], the MIC in assay [1], in assay [2], in assay [3] and in assay [4] was greater than 128 µg/mL throughout. The IC50 in assay [5] (E. coli DnaE IC50) is greater than 216 µM; in assay [6] (setting [7]), 17.3 µM.

Regarding `CO[C@H]1C[C@H]2C[C@@H](O)[C@H]3[C@H]4O[C@]2(/C(C)=C/[C@@H](C)[C@@H]([C@@H](C)O)OC1=O)[C@@H]3[C@H](O)[C@@H](C)[C@H]4OC(=O)c1ccc[nH]1` [Example 194], the MIC in assay [1] was greater than 128 µg/mL; in assay [2], greater than 128 µg/mL; in assay [3], greater than 128 µg/mL; in assay [4] it was 128 µg/mL (≈ 240 µM). The 50% inhibitory concentration (IC50) in assay [5] (setting [8]) is greater than 187 µM; in assay [6] (S. aureus DnaE IC50) it was 9.37 µM.

As to `COC1CC2C=CC3C4OC2(C(C)=CC(C)C(C(C)OC(=O)OCCN(CCO)CCO)OC1=O)C3C(O)C(C)C4OC(=O)c1ccc[nH]1` (stereo not drawn) [Example 32], the MIC in assay [1] was 2 µg/mL; in assay [2], greater than 128 µg/mL; in assay [3] it was 64 µg/mL (≈ 92.6 µM); in assay [4] it was 2 µg/mL (≈ 2.9 µM). Further, the results for the concentration for half-maximal inhibition (IC50) in assay [5] (setting [8]) and in assay [6] (S. aureus DnaE IC50) were greater than 145 µM and roughly 0.00651 µM, respectively.

Consider `C=C1C[C@H]2[C@H]3O[C@]4(/C(C)=C/[C@@H](C)[C@@H]([C@@H](C)O)OC(=O)[C@@H](OC)C[C@@H]14)[C@@H]2[C@H](O)[C@@H](C)[C@H]3OC(=O)c1ccc[nH]1` [Example 199], for which the MIC in assay [1] was 32 µg/mL; in assay [2], greater than 128 µg/mL; in assay [3] it was greater than 128 µg/mL; in assay [4], 16 µg/mL (≈ 30.2 µM). Besides, the values for the IC50 in assay [5] (setting [8]) and in assay [6] (S. aureus DnaE IC50) were 142 µM and 0.0283 µM, respectively.

Take `CO[C@H]1C[C@H]2C=C[C@H]3[C@H]4O[C@]2(/C(C)=C/[C@@H](C)[C@@H]([C@@H](C)OC(=O)c2ccccc2)OC1=O)[C@@H]3[C@H](O)[C@@H](C)[C@H]4OC(=O)c1ccc[nH]1` [Example 67]: the MIC in assay [1], in assay [2], in assay [3] and in assay [4] was greater than 128 µg/mL each time. Besides, the IC50 in assay [5] (E. coli DnaE IC50) was 12.9 µM; in assay [6] (setting [7]) it was 0.0113 µM.
